Data taken from EP4755403A1, “ANTI-PSMA ANTIBODY-DRUG CONJUGATE AND PHARMACEUTICAL USE THEREOF” (Jiangsu Hengrui Pharmaceuticals Co., Ltd., priority 2023, dated 2025).

How the values were obtained:
Assay in all cases: Cell killing activity of ADC molecules (CellTiter-Glo)
Type in all cases: cell-based, human
Conditions in all cases: 5 days
PC-3 cells = tested on: PC-3 cells
Procedure: (§1) LNCaP (ATCC, CRL-1740), 22RV1 (ATCC, CRL-2505), and PC-3 (ATCC, CRL-1435) cells were digested with trypsin, neutralized with a fresh medium, centrifuged at 1000 rpm, and then resuspended in a medium. After the cells were counted, the density of the cell suspensions was adjusted to […], and the cells were plated onto a 96-well plate. The adjusted cell suspension (135 µL) was added to each well with […]. Only the middle 60 wells were used for plating, and six wells in the twelfth column were taken as pure medium controls without cells. An equal volume of PBS was added to the other wells. The cells were incubated at 37 °C with 5% CO2 for 16 h.
(§2) Then 20 µL of the dilution was added to the cell plate described above, and the plate was incubated in an incubator (37 °C, 5% CO2) for 5 days. […] Subsequently, 9-point serial dilutions at a 1:3 ratio were performed with PBS. Then 1 µL of the dilution was added to 20 µL of RPMI-1640, and the mixture was transferred to a 96-well cell culture plate. The plate was incubated in an incubator (37 °C, 5% CO2) for 5 days. In the 96-well cell culture plate, 80 µL of the CellTiter-Glo reagent was added to each well, and the plate was left to stand in the dark at room temperature for 10-15 min. The chemiluminescence signal values were read on Victor3, and the data were processed using GraphPad software.
(§3) On the fifth day, the culture plate was taken out and allowed to return to room temperature. The CellTiter-Glo assay solution (75 µL) was added to each well, and the plate was left to stand in the dark at room temperature for 10 min. A Backseal membrane was attached to the bottom of the cell culture plate. The plate was placed on a microplate reader Victor 3, and luminescence signal values were read. Curve fitting was performed according to the log values of concentrations of the test compounds to the corresponding signal values using Graphpad Prism software, and IC50 values were calculated. The maximum value of killing was defined as the maximum killing rate (Imax) of the compound. The killing rate was calculated as follows: [formula]

22RV1 cells = tested on: 22RV1 cells
Procedure: as §1, §2, §3

LNCaP cells = tested on: LNCaP cells
Procedure: as §1, §2, §3

[1] = Homo sapiens, 120 h, read-out: IC50 (killing effect)

Structure (SMILES): CC[C@@]1(O)C(=O)OCc2c1cc1n(c2=O)Cc2c-1nc1cc(F)c(C)c3c1c2[C@@H](NC(=O)[C@H](O)C1CC1)CC3 [Compound 2-B]
- Imax (maximum killing rate) (PC-3 cells): 92.78%
- IC50 (PC-3 cells; [1]): 1.54 nM
- Imax (maximum killing rate) (22RV1 cells): 98.07%
- IC50 (22RV1 cells; [1]): 0.534 nM
- Imax (maximum killing rate) (LNCaP cells): 97.13%
- IC50 (LNCaP cells; [1]): 0.535 nM
